# Measured values as given in ChEMBL document CHEMBL1201862, “PubChem BioAssay data set” (2004).
# Active and inactive are the calls of the source.
# Key:
# [1] = reduced cellular PGC1a acetyl-lysine signal – cell-based, cherry-picked samples, dose response (AID 720514); type: functional;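 further: potency may reflect raised or lowered acetylation signal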
# [2] = target: T1, Eukaryotic translation initiation factor 2-alpha kinase 3 (Homo sapiens, UniProt Q9NZJ5); test: Dose response cell-based high-throughput screening assay to measure PERK inhibition. [Related pubchem assays: 1416 ]; type: functional
# T1 sequence (Q9NZJ5 whole entry): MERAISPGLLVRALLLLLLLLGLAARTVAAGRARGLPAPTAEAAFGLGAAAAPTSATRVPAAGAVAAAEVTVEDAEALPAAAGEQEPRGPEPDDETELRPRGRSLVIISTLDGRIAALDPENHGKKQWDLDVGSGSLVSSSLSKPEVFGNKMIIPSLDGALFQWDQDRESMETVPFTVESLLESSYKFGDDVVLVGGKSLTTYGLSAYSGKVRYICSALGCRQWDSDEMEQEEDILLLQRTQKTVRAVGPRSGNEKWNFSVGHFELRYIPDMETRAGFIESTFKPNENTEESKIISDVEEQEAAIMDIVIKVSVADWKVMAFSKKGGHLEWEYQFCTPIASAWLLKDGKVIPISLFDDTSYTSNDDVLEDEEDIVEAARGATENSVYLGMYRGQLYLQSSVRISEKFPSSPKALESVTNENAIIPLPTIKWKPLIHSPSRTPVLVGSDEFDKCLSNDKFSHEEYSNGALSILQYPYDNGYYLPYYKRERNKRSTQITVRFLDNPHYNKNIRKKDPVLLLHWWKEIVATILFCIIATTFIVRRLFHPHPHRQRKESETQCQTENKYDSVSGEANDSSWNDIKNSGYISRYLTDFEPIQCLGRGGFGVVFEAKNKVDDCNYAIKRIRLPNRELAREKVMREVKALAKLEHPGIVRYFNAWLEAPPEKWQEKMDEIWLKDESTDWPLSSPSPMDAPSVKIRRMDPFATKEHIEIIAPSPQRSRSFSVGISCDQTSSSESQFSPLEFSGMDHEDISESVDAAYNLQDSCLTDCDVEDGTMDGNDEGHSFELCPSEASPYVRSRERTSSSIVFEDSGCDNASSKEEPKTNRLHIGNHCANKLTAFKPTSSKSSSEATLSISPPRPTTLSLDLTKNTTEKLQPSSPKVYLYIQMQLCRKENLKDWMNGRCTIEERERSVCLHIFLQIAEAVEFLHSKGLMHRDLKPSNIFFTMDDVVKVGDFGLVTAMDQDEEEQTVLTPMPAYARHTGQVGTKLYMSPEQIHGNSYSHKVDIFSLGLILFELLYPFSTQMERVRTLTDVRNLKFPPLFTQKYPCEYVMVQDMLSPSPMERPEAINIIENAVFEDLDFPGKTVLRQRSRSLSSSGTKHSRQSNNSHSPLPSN
# [3] = target: T1, Eukaryotic translation initiation factor 2-alpha kinase 3; test: Counterscreen assay for PERK inhibitors: Dose response cell-based high throughput screening assay to measure inhibition of PERK at 6 hours. [Related pubchem assays: 1522, 1416 ]; type: functional
# NADPH oxidase 1 = target: T2, NADPH oxidase 1 (Homo sapiens, UniProt Q9Y5S8); type: functional, cell-based;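 further: Cell-based assay with luminescence read-out, IC50 derived from inhibitor dose-response curves; intracellular ROS from endogenous NOX1 in intact HT29 colon cancer cells; potency of inhibitors that lower the ROS luminescence signal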
# T2 sequence (Q9Y5S8 whole entry): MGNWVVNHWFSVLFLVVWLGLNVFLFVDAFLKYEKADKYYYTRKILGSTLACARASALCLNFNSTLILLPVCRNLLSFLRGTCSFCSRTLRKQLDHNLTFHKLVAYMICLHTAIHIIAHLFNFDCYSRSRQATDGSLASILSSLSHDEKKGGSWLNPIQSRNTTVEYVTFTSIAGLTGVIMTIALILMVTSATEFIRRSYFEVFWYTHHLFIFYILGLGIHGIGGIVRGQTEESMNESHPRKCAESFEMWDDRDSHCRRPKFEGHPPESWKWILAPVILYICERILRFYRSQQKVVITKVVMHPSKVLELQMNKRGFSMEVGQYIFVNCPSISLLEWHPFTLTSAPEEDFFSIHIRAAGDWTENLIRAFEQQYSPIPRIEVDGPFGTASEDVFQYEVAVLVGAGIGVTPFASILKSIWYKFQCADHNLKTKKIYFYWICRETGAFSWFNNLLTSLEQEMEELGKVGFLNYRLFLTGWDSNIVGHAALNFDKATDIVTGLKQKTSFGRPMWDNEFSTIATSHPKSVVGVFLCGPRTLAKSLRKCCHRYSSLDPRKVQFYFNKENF
# [4] = target: DNA dC->dU-editing enzyme APOBEC-3A (Homo sapiens, UniProt P31941); test: Dose Response confirmation of small molecule APOBEC3A DNA Deaminase Inhibitors via a fluorescence-based single-stranded DNA deaminase assay. [Related pubchem assays (depositor defined):AID493011, AID493024]; type: functional
# Chain of DNA dC->dU-editing enzyme APOBEC-3A (P31941 whole entry): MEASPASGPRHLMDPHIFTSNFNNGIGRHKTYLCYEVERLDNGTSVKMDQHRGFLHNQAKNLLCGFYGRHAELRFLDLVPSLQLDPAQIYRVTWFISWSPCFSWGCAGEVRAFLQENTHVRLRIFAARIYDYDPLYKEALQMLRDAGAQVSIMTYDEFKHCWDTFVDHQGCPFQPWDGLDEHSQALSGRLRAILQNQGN
# [5] = target: DNA dC->dU-editing enzyme APOBEC-3G (Homo sapiens, UniProt Q9HC16); type: functional;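 further: Dose-response counterscreen measuring inhibition of APOBEC3G DNA deaminase activity, run while confirming APOBEC3A inhibitors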
# Chain of DNA dC->dU-editing enzyme APOBEC-3G (Q9HC16 whole entry, the tested form may be a part): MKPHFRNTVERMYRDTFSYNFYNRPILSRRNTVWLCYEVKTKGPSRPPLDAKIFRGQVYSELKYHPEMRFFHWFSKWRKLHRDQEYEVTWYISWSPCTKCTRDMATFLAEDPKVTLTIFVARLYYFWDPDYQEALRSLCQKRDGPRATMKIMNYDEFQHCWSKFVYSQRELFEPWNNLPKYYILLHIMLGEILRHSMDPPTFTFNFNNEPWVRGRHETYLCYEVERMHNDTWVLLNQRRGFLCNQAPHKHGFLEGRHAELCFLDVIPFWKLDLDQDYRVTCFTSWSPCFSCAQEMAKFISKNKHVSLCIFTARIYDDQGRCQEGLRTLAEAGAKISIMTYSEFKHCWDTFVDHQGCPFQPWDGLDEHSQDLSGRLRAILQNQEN
# [6] = target: T3, Carboxy-terminal domain RNA polymerase II polypeptide A small phosphatase 1 (Homo sapiens, UniProt Q9GZU7); test: CTDSP1 inhibitors, concentration-response, biochemical, absorbance readout, ultra-high-throughput screen actives (AID 540297); type: functional
# T3 sequence (Q9GZU7 whole entry): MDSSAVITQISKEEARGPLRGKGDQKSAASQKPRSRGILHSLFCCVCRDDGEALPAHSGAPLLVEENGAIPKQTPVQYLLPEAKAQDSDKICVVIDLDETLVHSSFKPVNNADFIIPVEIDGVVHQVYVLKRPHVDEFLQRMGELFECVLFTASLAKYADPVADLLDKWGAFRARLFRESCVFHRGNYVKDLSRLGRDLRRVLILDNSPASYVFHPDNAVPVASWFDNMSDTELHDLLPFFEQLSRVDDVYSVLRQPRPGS
# Caspase-6 = target: T4, Caspase-6 (Homo sapiens, UniProt P55212); test: inhibition of CASP6 peptide cleavage – biochemical, VEID-R110 fluorescence, cherry-pick, dose response (AID 720632)
# T4 sequence (P55212 whole entry): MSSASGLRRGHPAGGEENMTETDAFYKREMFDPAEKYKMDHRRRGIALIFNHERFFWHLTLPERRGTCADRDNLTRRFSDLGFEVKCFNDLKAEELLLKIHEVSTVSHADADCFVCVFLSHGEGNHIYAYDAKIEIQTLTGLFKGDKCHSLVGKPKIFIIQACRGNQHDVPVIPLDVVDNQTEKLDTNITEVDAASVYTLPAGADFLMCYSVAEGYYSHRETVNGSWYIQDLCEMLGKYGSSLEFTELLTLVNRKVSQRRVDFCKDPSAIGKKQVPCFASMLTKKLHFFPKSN
# Cytochrome P450 2C19 = Cytochrome P450 2C19 (Homo sapiens, UniProt P33261); test: qHTS Assay for Inhibitors and Substrates of Cytochrome P450 2C19. [Related pubchem assays: 410 ]; type: ADME; conditions: read-out: Potency
# Chain of Cytochrome P450 2C19 (P33261 whole entry): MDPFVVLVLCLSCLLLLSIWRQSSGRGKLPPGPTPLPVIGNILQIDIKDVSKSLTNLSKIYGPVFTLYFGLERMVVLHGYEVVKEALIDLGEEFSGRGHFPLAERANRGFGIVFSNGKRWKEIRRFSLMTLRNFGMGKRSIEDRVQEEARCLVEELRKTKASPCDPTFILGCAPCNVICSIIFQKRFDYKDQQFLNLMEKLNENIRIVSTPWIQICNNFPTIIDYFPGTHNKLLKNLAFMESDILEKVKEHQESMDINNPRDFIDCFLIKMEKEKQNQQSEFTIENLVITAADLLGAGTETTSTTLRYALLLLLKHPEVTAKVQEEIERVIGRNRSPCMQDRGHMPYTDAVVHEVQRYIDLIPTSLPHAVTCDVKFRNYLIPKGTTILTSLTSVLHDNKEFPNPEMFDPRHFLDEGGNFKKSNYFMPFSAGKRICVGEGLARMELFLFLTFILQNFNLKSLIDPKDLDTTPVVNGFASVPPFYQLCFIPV
# [7] = target: T5, Alkaline phosphatase, tissue-nonspecific isozyme (Homo sapiens, UniProt P05186)
# T5 sequence (P05186 whole entry): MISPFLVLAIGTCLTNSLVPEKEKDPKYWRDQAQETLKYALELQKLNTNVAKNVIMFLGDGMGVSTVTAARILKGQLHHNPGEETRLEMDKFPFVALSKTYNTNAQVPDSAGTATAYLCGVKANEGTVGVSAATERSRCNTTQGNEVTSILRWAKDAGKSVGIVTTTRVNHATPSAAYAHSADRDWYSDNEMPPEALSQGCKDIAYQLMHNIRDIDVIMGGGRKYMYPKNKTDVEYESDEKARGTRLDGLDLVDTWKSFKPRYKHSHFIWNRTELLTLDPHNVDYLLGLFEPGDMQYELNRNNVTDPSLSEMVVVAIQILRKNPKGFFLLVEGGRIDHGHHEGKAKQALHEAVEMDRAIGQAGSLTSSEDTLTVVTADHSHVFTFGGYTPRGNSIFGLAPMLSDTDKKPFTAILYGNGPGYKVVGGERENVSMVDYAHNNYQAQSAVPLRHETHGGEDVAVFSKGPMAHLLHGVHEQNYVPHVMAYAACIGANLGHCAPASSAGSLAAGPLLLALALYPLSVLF
# [8] = microbe, parasite or virus in culture; type: functional; conditions: Mycobacterium tuberculosis
# cells = type: functional
# [9] = A Cell Based Secondary Assay To Explore Cytotoxicity of Compounds that Sensitize Mycobacterium Tuberculosis to Beta-Lactam Antibiotics.; type: functional
# Mucolipin-3 = target: T6, Mucolipin-3 (Homo sapiens, UniProt Q8TDD5); test: Dose response cell-based high-throughput screening assay for agonists of the transient receptor potential channel ML3 (TRPML3). [Related pubchem assays: 1526, 1424, 1448 ]; type: functional
# T6 sequence (Q8TDD5 whole entry): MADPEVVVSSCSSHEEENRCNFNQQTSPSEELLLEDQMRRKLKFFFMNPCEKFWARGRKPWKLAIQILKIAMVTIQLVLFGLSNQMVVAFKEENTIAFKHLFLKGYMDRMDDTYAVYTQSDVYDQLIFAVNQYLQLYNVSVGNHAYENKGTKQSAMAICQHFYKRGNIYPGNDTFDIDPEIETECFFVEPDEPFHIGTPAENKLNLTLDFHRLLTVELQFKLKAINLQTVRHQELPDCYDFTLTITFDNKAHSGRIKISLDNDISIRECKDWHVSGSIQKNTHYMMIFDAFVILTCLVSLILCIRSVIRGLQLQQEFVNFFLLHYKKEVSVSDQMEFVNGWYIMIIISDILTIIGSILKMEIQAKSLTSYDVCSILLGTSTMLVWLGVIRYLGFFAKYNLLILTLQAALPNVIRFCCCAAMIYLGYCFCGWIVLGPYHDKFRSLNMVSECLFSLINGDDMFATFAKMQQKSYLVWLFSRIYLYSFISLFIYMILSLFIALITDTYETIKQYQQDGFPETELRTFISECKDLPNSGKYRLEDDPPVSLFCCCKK
# Ion channel NompC = Ion channel NompC (Danio rerio, UniProt Q7T1G6); test: Fluorescence counterscreen assay for TRPML3 agonists: dose response cell-based high-throughput screening assay to identify agonists of the transient receptor potential channel N1 (TRPN1). [Related pubchem assays: 1526, 1424, 1448 ]; type: functional
# Chain of Ion channel NompC (Q7T1G6 whole entry): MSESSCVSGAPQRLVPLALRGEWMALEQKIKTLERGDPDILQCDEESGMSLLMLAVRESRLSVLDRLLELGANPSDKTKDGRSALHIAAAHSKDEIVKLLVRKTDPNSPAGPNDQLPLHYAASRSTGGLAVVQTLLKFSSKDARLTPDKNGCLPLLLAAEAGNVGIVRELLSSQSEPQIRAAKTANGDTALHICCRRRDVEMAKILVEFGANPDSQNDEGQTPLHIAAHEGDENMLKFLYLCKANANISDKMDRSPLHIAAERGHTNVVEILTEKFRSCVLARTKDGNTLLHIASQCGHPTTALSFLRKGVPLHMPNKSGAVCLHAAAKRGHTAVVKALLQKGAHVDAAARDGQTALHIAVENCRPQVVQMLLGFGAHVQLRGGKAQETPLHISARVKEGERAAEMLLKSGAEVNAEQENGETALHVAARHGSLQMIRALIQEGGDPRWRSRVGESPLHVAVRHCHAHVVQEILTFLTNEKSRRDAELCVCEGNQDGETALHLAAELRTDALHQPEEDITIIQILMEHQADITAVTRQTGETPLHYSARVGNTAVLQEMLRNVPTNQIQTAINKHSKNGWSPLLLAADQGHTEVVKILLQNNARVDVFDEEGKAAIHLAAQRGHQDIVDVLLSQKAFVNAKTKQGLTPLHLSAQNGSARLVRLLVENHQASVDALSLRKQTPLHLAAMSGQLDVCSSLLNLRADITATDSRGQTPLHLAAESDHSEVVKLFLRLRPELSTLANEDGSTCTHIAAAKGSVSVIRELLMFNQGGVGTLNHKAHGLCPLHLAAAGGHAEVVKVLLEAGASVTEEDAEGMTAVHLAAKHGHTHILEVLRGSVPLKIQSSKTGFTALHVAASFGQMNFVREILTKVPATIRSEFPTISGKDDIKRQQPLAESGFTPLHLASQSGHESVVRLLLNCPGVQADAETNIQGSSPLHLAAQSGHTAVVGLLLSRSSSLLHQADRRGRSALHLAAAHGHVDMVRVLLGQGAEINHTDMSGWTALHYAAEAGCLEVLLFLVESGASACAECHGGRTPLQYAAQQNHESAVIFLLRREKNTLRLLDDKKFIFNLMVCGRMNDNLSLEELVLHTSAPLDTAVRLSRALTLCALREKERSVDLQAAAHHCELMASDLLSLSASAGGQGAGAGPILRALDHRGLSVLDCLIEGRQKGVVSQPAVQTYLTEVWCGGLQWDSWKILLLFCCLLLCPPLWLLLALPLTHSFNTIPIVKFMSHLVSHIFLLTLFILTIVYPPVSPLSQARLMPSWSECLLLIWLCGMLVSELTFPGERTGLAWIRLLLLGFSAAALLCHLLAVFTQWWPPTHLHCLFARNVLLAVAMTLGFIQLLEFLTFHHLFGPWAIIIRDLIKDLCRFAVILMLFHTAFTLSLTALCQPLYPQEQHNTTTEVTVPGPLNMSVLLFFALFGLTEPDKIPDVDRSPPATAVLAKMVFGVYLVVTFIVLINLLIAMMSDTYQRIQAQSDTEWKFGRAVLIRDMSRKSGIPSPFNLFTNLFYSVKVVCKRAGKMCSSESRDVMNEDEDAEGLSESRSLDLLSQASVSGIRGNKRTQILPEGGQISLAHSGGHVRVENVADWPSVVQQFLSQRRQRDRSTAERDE
# [10] = loss of viability in HepG2 cells – cell-based, CellTiter-Glo, cherry-picked, cytotoxicity control for Shn3 inhibitor project, dose response (AID 624134); type: functional
# [11] = non-specific 3'UTR reporter inhibition in Clone20-Shn3RL – cell-based, Renilla luciferase, cherry-picked, counter-screen for Shn3 inhibitor project, dose response (AID 624133); type: functional
structure (smiles),measurement,setting,value
CC(=O)N1CCN(S(=O)(=O)c2cccc(C(=O)Nc3ccc4c(c3)OCO4)c2)CC1,AC50,[1],25.1 µM (active)
O=C(Cc1ncon1)Nc1ccc(F)c(F)c1F,EC50,[2],> 55.7 µM (not active)
same,EC50,[3],> 55.7 µM (not active)
CCN(CC(=O)NCc1ccc(Cl)cc1)C(=O)CSCC(=O)Nc1ccc(C)cc1,AC50,[1],5.23 µM (active)
CSc1ccc2c(c1)Nc1ccccc1S2,IC50,NADPH oxidase 1,0.241 µM (active)
O=P(c1ccccc1)(c1ccccc1)c1cc(S(=O)(=O)O)ccc1O,IC50,[4],14.3 µM (active)
same,IC50,[5],45 µM (active)
same,IC50,[6],9.24 µM (active)
same,AC50,Caspase-6,1.78 µM (active)
COC(=O)NC(c1ccccc1)C(C#N)C(=O)OC (stereo not given),AC50,Cytochrome P450 2C19,3.16 µM (inconclusive)
CCCCN1C(=O)C2(NNc3ccccc3O2)c2ccccc21 (stereo not given),EC50,[7],< 0.195 µM (not active)
same,CC50,[8],> 40 µM (active)
same,IC50,cells,36.5 µM (active)
CSc1ncc(Cl)c(C(=O)Nc2cccc3ccccc23)n1,CC50,[9],> 40 µM (active)
CC(C)(C)NS(=O)(=O)c1cccc2nsnc12,EC50,[2],> 55.7 µM (not active)
same,EC50,[3],> 55.7 µM (not active)
CCOC(=O)C1CCN(C(=O)C(C)N(c2ccc(Oc3ccccc3)cc2)S(C)(=O)=O)CC1 (stereo not given),EC50,Mucolipin-3,6.8 µM (active)
same,EC50,Ion channel NompC,> 29.9 µM (not active)
same,AC50,[10],> 70 µM (inactive)
same,AC50,[11],9.34 µM (active)
